# Source: patent US10933057B2 (priority 2017, dated 2021)
# System: patients
# Design: species or system human
# Settings: in vivo
compound,measurement,value
CCCCC(C)(O)C/C=C/[C@H]1[C@H](O)CC(=O)[C@@H]1CCCCCCC(=O)OC (mixture of isomers) [Misoprostol],"Pain (No pain −, Pain +)",+
